Reference: paper PMC10379611 (International Journal of Molecular Sciences, 2023)
Entries after “also recorded” stand apart in the source; their conditions may differ. Like-named read-outs stand apart in the source and are kept apart here.

Key:
[1] = molecular target: T1, OATP1B1 (Homo sapiens, UniProt Q9Y6L6); assay: OATP1B1 uptake assay (pyranine) in overexpressing A431 cells
T1 sequence (Q9Y6L6 1-691): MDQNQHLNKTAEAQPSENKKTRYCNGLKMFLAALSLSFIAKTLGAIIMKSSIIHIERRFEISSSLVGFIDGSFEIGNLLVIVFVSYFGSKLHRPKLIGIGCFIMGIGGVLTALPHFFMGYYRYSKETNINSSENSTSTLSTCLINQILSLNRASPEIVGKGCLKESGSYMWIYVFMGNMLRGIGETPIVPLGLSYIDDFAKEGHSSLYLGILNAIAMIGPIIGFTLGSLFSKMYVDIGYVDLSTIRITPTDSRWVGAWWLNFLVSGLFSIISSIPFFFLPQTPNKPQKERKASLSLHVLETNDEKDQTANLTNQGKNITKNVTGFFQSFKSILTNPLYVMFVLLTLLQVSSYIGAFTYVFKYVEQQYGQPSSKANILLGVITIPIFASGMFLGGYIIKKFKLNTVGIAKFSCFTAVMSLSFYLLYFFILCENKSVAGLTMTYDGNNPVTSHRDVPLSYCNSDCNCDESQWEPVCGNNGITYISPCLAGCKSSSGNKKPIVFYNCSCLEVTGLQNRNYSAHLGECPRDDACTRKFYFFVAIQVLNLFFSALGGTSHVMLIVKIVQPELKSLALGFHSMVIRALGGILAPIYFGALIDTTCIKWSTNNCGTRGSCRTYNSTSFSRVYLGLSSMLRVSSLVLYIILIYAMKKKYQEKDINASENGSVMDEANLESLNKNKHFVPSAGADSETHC

[2] = molecular target: T2, ABCG2 (Homo sapiens, UniProt Q9UNQ0); assay: ABCG2 vesicular transport (lucifer yellow), HEK293 inverted membrane vesicles; details: up to 200 μM
T2 sequence (Q9UNQ0 1-655): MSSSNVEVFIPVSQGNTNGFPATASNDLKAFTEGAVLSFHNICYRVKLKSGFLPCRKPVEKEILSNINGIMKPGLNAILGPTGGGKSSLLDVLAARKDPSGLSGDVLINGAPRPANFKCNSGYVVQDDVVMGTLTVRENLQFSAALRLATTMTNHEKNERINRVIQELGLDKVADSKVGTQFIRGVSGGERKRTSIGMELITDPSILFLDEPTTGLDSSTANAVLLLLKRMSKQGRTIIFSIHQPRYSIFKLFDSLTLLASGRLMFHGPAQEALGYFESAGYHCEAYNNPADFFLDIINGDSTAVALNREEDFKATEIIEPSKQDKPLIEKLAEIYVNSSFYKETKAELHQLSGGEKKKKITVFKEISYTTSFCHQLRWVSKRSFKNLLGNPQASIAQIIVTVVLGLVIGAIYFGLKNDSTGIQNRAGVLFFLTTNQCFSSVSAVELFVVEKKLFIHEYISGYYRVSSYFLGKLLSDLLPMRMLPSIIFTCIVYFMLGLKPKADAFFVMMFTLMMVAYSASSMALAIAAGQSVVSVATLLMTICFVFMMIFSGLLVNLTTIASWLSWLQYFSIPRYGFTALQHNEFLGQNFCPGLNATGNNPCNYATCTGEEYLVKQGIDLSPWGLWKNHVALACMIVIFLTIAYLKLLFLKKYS
Experimental: ABCB1, ABCG2, and ABCC4 HEK293 membrane vesicles were prepared by Solvo Biotechnology, Budapest. The total protein content of membrane vesicle preparations was determined using the Lowry quantitation method and 30 µg (ABCG2) or 50 µg (ABCB1 and ABCC4) total protein/sample was used for the measurements. For ABCG2 vesicular transport, the fluorescent probe Lucifer yellow (LY) was present in the mixture at 5 μM final concentration. […] Uptake of the probe substrates into the inverted membrane vesicles was measured at 37 °C (ABCG2, ABCB1) or at 32 °C (ABCC4) for 10 min (ABCG2), 5 min (ABCB1), or 1.5 min (ABCC4) in the presence or absence of 4 mM Mg-ATP, in 75 μL final volume of the media (0.04 M MOPS-TRIS pH 7.2, 56 mM KCl, 6 mM MgCl2). The known reference inhibitors of the transporters (1 µM Ko143 for ABCG2, 50 µM Verapamil for ABCB1, and 150 µM MK571 for ABCC4) served as controls. Each test compound was dissolved in DMSO and a 0.75 µL volume was added to the samples. A DMSO solvent control was used in each experiment. The transport was stopped by the addition of ice-cold wash buffer to the samples, then rapidly filtered (MSFBN6B, Millipore, Burlington, MA, USA). Filters were washed with ice-cold wash buffer (0.04 M MOPS-TRIS pH 7.2, 70 mM KCl). For LY, vesicles retained on the filters were dissolved in 10% SDS and transferred into a 96-well microplate. After the addition of DMSO as a stabilizer, fluorescence was measured using a plate reader at 427/535 nm (Victor X3 Enspire Perkin-Elmer, Waltham, MA, USA). When radiolabeled compounds were used as substrates, radioactivity retained on the filter was measured by liquid scintillation counting in Optiphase HiSafe liquid (Perkin Elmer MicroBeta2 liquid scintillation counter, Perkin Elmer, Waltham, MA, USA). ATP-dependent transport was calculated by subtracting the values obtained in the presence of AMP from those obtained in the presence of ATP.

[3] = molecular target: T3, OATP1B3 (Homo sapiens, UniProt Q9NPD5); assay: OATP1B3 uptake assay (pyranine) in overexpressing A431 cells
T3 sequence (Q9NPD5 1-702): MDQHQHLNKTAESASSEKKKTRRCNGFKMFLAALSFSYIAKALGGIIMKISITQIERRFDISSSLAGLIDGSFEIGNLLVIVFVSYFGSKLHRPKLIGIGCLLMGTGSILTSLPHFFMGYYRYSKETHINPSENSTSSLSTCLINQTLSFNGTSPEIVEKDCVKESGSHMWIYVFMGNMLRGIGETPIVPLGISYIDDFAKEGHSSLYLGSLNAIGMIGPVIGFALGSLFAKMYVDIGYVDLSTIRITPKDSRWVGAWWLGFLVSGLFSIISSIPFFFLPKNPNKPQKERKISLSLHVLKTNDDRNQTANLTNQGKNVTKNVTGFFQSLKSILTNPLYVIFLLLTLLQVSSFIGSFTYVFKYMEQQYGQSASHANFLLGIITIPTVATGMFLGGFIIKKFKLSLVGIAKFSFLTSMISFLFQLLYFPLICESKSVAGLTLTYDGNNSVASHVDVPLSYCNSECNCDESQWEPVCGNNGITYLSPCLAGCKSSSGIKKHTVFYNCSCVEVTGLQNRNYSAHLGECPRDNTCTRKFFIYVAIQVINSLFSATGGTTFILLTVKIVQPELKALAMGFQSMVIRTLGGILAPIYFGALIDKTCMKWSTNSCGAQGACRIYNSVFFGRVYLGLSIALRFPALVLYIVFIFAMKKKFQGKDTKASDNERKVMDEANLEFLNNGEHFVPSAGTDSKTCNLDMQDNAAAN

| SMILES | maximum inhibition of OATP1B1 ([1]; at 200 μM, pyranine) | IC50 ([1]; read-out: estimated IC50, OATP1B1, pyranine substrate, A431 cells) | effect on ABCG2 lucifer yellow vesicular transport [2] | maximum inhibition of OATP1B3 ([3]; at 200 μM, pyranine) | IC50 ([3]; read-out: estimated IC50, OATP1B3, pyranine substrate, A431 cells) | IC50 [1] | inhibition at 10 min, 200 µM ([1]; human, A431 cells overexpressing OATP1B1, pH 7.4, probe pyranine (20 μM)) | IC50 [3] | inhibition at 10 min, 200 µM ([3]; human, A431 cells overexpressing OATP1B3, pH 7.4, probe pyranine (20 μM)) | inhibition of OATP1B1 by Nirmatrelvir alone ([1]; at 20 μM) | inhibition of OATP1B3 by Nirmatrelvir alone ([3]; at 20 μM) |
| --- | --- | --- | --- | --- | --- | --- | --- | --- | --- | --- | --- |
| O=c1nc(NO)ccn1[C@@H]1O[C@H](CO)[C@@H](O)[C@H]1O [EIDD-1931] | 20–40% | > 200 µM | neither the function of ABCB1 nor that of ABCG2 was altered | 20–40% | > 200 µM |  |  |  |  |  |  |
| CC(C)C(=O)OC[C@H]1O[C@@H](n2ccc(NO)nc2=O)[C@H](O)[C@@H]1O [EIDD-2801, Molnupiravir] |  |  | neither the function of ABCB1 nor that of ABCG2 was altered |  |  | > 200 µM | 20 to 40% | > 200 µM | 20 to 40% |  |  |
| CC(C)(C)[C@H](NC(=O)C(F)(F)F)C(=O)N1C[C@H]2[C@@H]([C@H]1C(=O)N[C@H](C#N)C[C@@H]1CCNC1=O)C2(C)C [Nirmatrelvir] |  |  | not affected; also recorded: negligible effect |  |  |  |  |  |  | only a minor inhibitory effect | only a minor inhibitory effect |
